Source: patent US20050059641A1, “Compositions and methods for treating and preventing cancer using analogs of vitamin D” (Aphios Corporation, priority 2003, published 2005)
“Also recorded” adds a separate entry of the source.

How the values were obtained:
[1] = tested on: breast cancer cells (MCF-7); assay: microscopic examination of the cells, MCF-7; format: cell-based; details: MCF-7, treated for sixteen (16) hours
[2] = tested on: MCF-7 cells (breast cancer cells); assay: 3H-thymidine incorporation assay, MCF-7; format: cell-based; details: compared to 1,25(OH)2D3
Text: (§1) It is well known that secretory epithelial cells are the main sites for the development of cancers of the breast, prostate and various other organs.
It is well-established that the biological properties of 1,25(OH)2D3 and its analogs are mediated by their interaction with VDR.
(§2) In a study, investigators compared the growth-inhibitory effects of 25-OH-D3-3-BE and 1,25(OH)2D3 in several VDR-positive epithelial cells, e.g. keratinocytes (primary skin cells), MCF-7 cells (breast cancer cells), hormone-sensitive LNCaP and hormone-refractory PC3 cells (prostate cancer cells), and PZ-HPV-7 (papillovirus immortalized normal prostate cells) by using ^3H-thymidine incorporation assays (FIGS. 14-19).

[3] = tested on: LNCaP cells (prostate cancer cells); assay: 3H-thymidine incorporation assay, LNCaP; format: cell-based, human; details: for effect on proliferation (3H-thymidine incorporation): 10^−6M, 16 hours; for dose-dependency of antiproliferative effect: 10^−8-10^−6M; for antiproliferative effect (3H-thymidine incorporation): compared to 1,25(OH)2D3
Procedure: (§3) The inventors further studied the effect of 1,25(OH)2D3-3-BE on LNCAP cells (most closely resembling human hormone-sensitive prostate cancer) and PZ-HPV-7 cells (immortalized normal prostate cells). The cells were treated with ethanol or 10^−6M of either 1,25(OH)2D3 or 1,25(OH)2D3-3-BE for 16 hours and the effect on proliferation was determined by ^3H-thymidine incorporation assays as described earlier. The viable cell count was determined by Methylene blue assay. The Methylene blue assay is a simple colorimetric method that is widely used to determine the viable cell count.
The inventors studied dose-dependency of antiproliferation and cytotoxicity by 1,25(OH)2D3 or 1,25(OH)2D3-3-BE in LNCaP cells. The cells were treated with 10^−8-10^−6M of either 1,25(OH)2D3 or 1,25(OH)2D3-3-BE or ethanol (used as a control). The effect on proliferation and viable cell count were determined by using ^3H-thymidine incorporation and Methylene blue assay respectively. […]
as §2

[4] = tested on: hormone-sensitive LNCaP cells; assay: microscopic examination of the cells, LNCaP; format: cell-based, human; details: treated for sixteen (16) hours
[5] = tested on: PZ-HPV-7 (papillovirus immortalized normal prostate cells); assay: 3H-thymidine incorporation assay, PZ-HPV-7; format: cell-based; details: PZ-HPV-7 cells; for effect on proliferation (3H-thymidine incorporation): 10^−6M, 16 hours; for antiproliferative effect (3H-thymidine incorporation): compared to 1,25(OH)2D3
Procedure: as §1, §3, §2

PC-3 cells = assay: DNA-fragmentation analysis; format: cell-based, human; details: 250 nM, 10 hours
Procedure: (a) DNA-fragmentation analysis: PC-3 cells (2×10^6) were treated with 250 nM of 1,25(OH)2D3, 25-OH-D3 or 25-OH-D3-3-BE for 10 hours. The cells were harvested and lysed in 0.5 ml lysis buffer (20 mM Tris-HCl, 10 mM EDTA, 0.5% Triton X-100, pH 8.0), and DNA was extracted using phenol-chloroform procedure. The DNA was resuspended in 0.1 ml of 20 mM Tris-HCl, pH 8 and treated with Rnase, followed by electrophoresis on 1.2% agarose gel in TAE. The DNA was visualized under UV light after ethidinium bromide staining.

[6] = tested on: keratinocytes (primary cells); assay: 3H-thymidine incorporation assay, keratinocytes; format: cell-based, human; details: compared to 1,25(OH)2D3
Text: as §1, §2

[7] = tested on: immortalized normal prostate cells (PZ-HPV-7); assay: microscopic examination of the cells, PZ-HPV-7; format: cell-based; details: PZ-HPV-7, treated for sixteen (16) hours
[8] = tested on: hormone-refractory PC3 cells; assay: microscopic examination of the cells, PC3; format: cell-based, human; details: PC3, treated for sixteen (16) hours
[9] = tested on: PC3 cells (prostate cancer cells); assay: 3H-thymidine incorporation assay, PC3; format: cell-based, human; details: for antiproliferative effect (3H-thymidine incorporation): PC3 cells, compared to 1,25(OH)2D3
Text: as §1, §2
Since 25-OH-D3-3-BE contains an ester bond, its hydrolysis by esterases in growing cells would produce equimolar amounts of bromoacetic acid (BAA) and 25-OH-D3 (see, FIG. 21).
Furthermore, fetal calf serum (FCS) contains many proteins, including vitamin D-binding protein, which potentially could absorb 25-OH-D3-3-BE before it reacts with VDR. Typically, the assays described herein were carried out in a media containing 10% FCS (after serum-depriving the cells for 15 hours).

[10] = tested on: primary cultures of normal human keratinocytes; assay: microscopic examination of the cells, keratinocytes; format: cell-based; details: treated for sixteen (16) hours
[11] = tested on: intestinal cancer Caco-2 cells; details: compared with 1,25(OH)2D3; cited from earlier work
vitamin D receptor, VDR = vitamin D receptor, VDR (Homo sapiens, UniProt P11473); details: cited from earlier work
Chain of vitamin D receptor, VDR (P11473 whole entry): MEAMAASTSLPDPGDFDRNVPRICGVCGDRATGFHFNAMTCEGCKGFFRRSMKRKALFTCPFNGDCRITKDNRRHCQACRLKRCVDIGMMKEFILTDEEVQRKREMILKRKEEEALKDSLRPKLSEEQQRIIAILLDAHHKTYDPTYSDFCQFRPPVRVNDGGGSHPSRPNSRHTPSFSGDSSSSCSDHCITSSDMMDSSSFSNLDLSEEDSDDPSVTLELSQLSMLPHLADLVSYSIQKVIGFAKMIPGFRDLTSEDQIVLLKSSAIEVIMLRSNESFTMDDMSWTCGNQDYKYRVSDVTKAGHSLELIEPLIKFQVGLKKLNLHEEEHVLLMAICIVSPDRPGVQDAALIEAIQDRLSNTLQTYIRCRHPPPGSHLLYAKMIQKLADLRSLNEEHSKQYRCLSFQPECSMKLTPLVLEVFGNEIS

VDR-regulated genes = details: higher level sustained for a longer duration at a lower concentration of the analog; cited from earlier work
PZ-HPV-7 cells = assay: Methylene blue assay, viable cell count, PZ-HPV-7; format: cell-based; details: 10^−6M, 16 hours
LNCaP cells = assay: Methylene blue assay, viable cell count, LNCaP; details: 10^−6M, 16 hours
Procedure: as §3
The inventors studied dose-dependency of antiproliferation and cytotoxicity by 1,25(OH)2D3 or 1,25(OH)2D3-3-BE in LNCaP cells. The cells were treated with 10^−8-10^−6M of either 1,25(OH)2D3 or 1,25(OH)2D3-3-BE or ethanol (used as a control). The effect on proliferation and viable cell count were determined by using ^3H-thymidine incorporation and Methylene blue assay respectively.

[12] = in vivo toxicity study in CD-1 mice; details: CD-1 mice; for Body Weight On Day 0: beginning of the experiment
Text: Investigators completed an in vivo study to determine the toxicity of 25-OH-D3-3-BE at various doses in CD-1 mice. The animals (average weight ˜30 gms) were maintained with normal chow and water ad libitum. […] At the end of the experiment the animals were lightly anesthetized and blood collected after decapitation for serum calcium-analysis. […] Frequency of administration, body weights at the beginning and at the end of the experiment and serum calcium values are given in the accompanying Table 1.

VDR = VDR (Homo sapiens, UniProt P11473); details: compared with 1,25(OH)2D3; cited from earlier work
Chain of VDR (P11473 whole entry, species assumed): as the sequence (P11473 whole entry) above

[13] = tested on: prostate tumor induced with PC-3 cells; assay: in vivo effect in mice bearing prostate tumor induced with PC-3 cells; parameters: species or system male SCID mice; details: SCID mice with PC-3 tumor; 25-OH-D3 10 μg or 25-OH-D3-3-BE 13.2 μg (molar equivalent) i.p. in alternate days for two weeks
Procedure: Sesame oil solutions (200 μl) of either 25-OH-D3 (10 μg) or 25-OH-D3-3-BE (13.2 μg, molar equivalent of 25-OH-D3) or vehicle were administered i.p. in alternate days for two weeks. […] At the end, mice were anesthetized, tumors were removed, and blood was collected. Tumors were embedded in paraffin and sections were made.

Row | SMILES | microscopic appearance of the cells [1] | antiproliferative effect (3H-thymidine incorporation) [2] | effect on proliferation (3H-thymidine incorporation) [3] | dose-dependency of antiproliferative effect [3] | antiproliferative effect (3H-thymidine incorporation) [3] | microscopic appearance of the cells [4] | effect on proliferation (3H-thymidine incorporation) [5] | antiproliferative effect (3H-thymidine incorporation) [5] | DNA fragmentation (apoptosis) (PC-3 cells) | antiproliferative effect (3H-thymidine incorporation) [6] | microscopic appearance of the cells [7] | microscopic appearance of the cells [8] | antiproliferative effect (3H-thymidine incorporation) [9] | microscopic appearance of the cells [10] | further results
1 | C=C1/C(=C\C=C2/CCC[C@]3(C)[C@@H]([C@H](C)CCCC(C)(C)O)CC[C@@H]23)C[C@@H](O)C[C@@H]1O [1,25(OH)2D3, 1-α,25-dihydroxyvitamin D3, reference compound] | appeared normal | dose-dependant antiproliferation | only inhibition of proliferation | most pronounced at 10^−6M | dose-dependant antiproliferation | appeared normal | only inhibition of proliferation | dose-dependant antiproliferation | no such DNA cleavage was observed | dose-dependant antiproliferation | appeared normal | appeared normal | dose-dependant antiproliferation | appeared normal | 
2 | C=C1/C(=C\C=C2/CCC[C@@]3(C)C2CC[C@@H]3C(C)CCCC(C)(C)O)C[C@@H](OC(=O)CBr)CC1O (stereo partly drawn) [1,25(OH)2D3-3-BE, 1α,25-dihydroxy-vitamin D3-3β-(2)-bromoacetate] | appeared normal | stronger antiproliferative effect; also recorded: dose-dependant antiproliferation | almost completely inhibited | most pronounced at 10^−6M | stronger antiproliferative effect; also recorded: dose-dependant antiproliferation | appeared to have undergone apoptosis | almost completely inhibited | stronger antiproliferative effect; also recorded: dose-dependant antiproliferation |  | stronger antiproliferative effect; also recorded: dose-dependant antiproliferation | appeared normal | appeared to have undergone apoptosis | stronger antiproliferative effect; also recorded: dose-dependant antiproliferation | appeared normal | decrease of proliferation compared with 1,25(OH)2D3 ([3]; dose levels of 10^−6 and 10^−7M): much stronger in decreasing the proliferation than 1,25(OH)2D3; calcemic index [11]: lower calcemic index than 1,25(OH)2D3; speed of cross-linking to VDR (vitamin D receptor, VDR): extremely rapid; transcription of VDR-regulated genes (VDR-regulated genes): increased transcription; viable cell count diminished by (PZ-HPV-7 cells): approximately 15%; viable cell count diminished by (LNCaP cells): approximately 60%
3 | C=C1CC[C@H](O)C/C1=C/C=C1\CCC[C@]2(C)[C@@H]([C@H](C)CCCC(C)(C)O)CC[C@@H]12 [25-OH-D3, 25-hydroxyvitamin D3, reference compound] |  |  |  |  |  |  |  |  | no such DNA cleavage was observed |  |  |  |  |  | Body Weight on Day 12 ([12]; 3.3 μg/kg intraperitoneally): 33.5 ± 1 grams; Body Weight On Day 0 ([12]; 3.3 μg/kg intraperitoneally): 31.5 ± 1.56 grams; Body Weight on Day 12 ([12]; 33 μg/kg intraperitoneally): 30.66 ± 2 grams; Body Weight On Day 0 ([12]; 33 μg/kg intraperitoneally): 28.9 ± 2 grams; VDR-binding ability (VDR): significantly low VDR-binding ability; condition of the mice at the end of treatment [13]: very sick, and most of them died
4 | O=C(CBr)OCc1ccccc1 [benzylbomacetate, benzylbormoacetate, reference compound] |  | no effect |  |  | no effect |  |  |  |  |  |  |  |  |  | 
5 | O=C(O)CBr [bromoacetic acid, reference compound] |  | no effect |  |  | no effect |  |  |  |  |  |  |  |  |  | growth-inhibitory effect (3H-thymidine incorporation) ([9]; PC-3 cells, 10^−6M): not antiproliferative
